Data from patent publication US20230416275A1, “MODULATORS OF CYSTIC FIBROSIS TRANSMEMBRANE CONDUCTANCE REGULATOR” (VERTEX PHARMACEUTICALS INCORPORATED, priority 2020, published 2023).
Where two headings read alike, the source gives them in different places.

Experiments:
[1] = biological target: T1, CFTR-mediated chloride transport in human intestinal epithelial enteroid cells (Homo sapiens, UniProt P13569); assay: Membrane potential dye, Enteroid Assay B; format: cell-based; details: for Ent. B Max Activity (%): % of chloride transport of triple combination control (1 μM (14S)-8-[3-(2-{Dispiro[2.0.2.1]heptan-7-yl}ethoxy)-1H-pyrazol-1-yl]-12,12-dimethyl-... macrocycle, 3 μM tezacaftor, 300 nM acute ivacaftor); for EC50: enteroid cells, 18-24 hours incubation, acute 10 μM forskolin and 300 nM ivacaftor, read-out: Ent. B EC50
T1 sequence (P13569 with tags, fused parts or gaps DEL508-508): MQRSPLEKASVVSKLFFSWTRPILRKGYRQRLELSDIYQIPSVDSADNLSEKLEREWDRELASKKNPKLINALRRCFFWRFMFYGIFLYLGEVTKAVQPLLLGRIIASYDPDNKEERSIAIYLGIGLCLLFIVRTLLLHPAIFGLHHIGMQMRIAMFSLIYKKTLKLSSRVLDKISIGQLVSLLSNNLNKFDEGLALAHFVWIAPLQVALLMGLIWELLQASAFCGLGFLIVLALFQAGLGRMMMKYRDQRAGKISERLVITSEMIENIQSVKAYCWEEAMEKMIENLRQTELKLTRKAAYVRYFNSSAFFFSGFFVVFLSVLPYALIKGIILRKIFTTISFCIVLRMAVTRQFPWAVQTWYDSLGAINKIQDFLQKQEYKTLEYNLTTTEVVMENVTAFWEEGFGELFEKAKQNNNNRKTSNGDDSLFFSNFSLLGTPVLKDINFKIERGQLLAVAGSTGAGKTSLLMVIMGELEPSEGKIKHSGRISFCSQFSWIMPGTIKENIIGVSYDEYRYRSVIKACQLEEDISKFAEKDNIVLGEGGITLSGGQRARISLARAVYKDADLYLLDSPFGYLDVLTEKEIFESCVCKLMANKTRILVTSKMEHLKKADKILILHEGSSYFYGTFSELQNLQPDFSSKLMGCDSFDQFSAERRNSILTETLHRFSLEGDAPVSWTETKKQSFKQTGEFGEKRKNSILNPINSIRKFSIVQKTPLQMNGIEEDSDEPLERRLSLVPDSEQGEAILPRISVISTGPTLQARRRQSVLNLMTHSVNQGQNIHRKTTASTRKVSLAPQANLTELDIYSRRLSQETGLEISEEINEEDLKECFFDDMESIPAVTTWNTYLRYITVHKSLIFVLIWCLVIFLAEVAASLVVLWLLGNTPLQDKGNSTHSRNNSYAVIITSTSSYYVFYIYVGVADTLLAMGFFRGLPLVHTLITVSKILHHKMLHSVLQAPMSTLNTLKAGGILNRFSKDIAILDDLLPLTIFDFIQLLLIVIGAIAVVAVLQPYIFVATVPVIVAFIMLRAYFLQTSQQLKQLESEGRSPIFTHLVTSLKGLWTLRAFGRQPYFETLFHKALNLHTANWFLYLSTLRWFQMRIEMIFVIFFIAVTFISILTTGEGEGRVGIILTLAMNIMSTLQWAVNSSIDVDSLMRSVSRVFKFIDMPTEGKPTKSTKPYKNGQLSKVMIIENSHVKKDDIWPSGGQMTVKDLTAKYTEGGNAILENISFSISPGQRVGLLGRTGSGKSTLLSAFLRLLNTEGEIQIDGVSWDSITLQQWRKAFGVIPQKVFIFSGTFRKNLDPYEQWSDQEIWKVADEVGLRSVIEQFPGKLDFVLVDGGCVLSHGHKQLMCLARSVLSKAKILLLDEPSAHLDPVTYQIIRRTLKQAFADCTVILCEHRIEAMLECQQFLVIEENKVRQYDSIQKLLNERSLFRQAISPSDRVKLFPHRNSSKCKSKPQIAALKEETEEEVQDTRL
Protocol: Base medium (ADF+++) consisted of Advanced DMEM/Ham's F12, 2 mM Glutamax, 10 mM HEPES, […] penicillin/streptomycin.
Intestinal enteroid maintenance medium (IEMM) consisted of ADF+++, 1×B27 supplement, 1×N2 supplement, 1.25 mM N-acetyl cysteine, 10 mM Nicotinamide, 50 ng/mL hEGF, 10 nM Gastrin, 1 μg/mL hR-spondin-1, 100 ng/mL hNoggin, TGF-b type 1 inhibitor A-83-01, 100 μg/mL Primocin, 10 μM P38 MAPK inhibitor SB202190.
Bath 1 Buffer consisted of 1 mM MgCl2, 160 mM NaCl, 4.5 mM KCl, 10 mM HEPES, 10 mM Glucose, 2 mM CaCl2.
Chloride Free Buffer consisted of 1 mM Magnesium Gluconate, 2 mM Calcium Gluconate, 4.5 mM Potassium Gluconate, 160 mM Sodium Gluconate, 10 mM HEPES, 10 mM Glucose.
Bath1 Dye Solution consisted of Bath 1 Buffer, 0.04% Pluronic F127, 20 μM Methyl Oxonol, 30 μM CaCCinh-A01, 30 μM Chicago Sky Blue.
Chloride Free Dye Solution consisted of Chloride Free Buffer, 0.04% Pluronic F127, 20 μM Methyl Oxonol, 30 μM CaCCinh-A01, 30 μM Chicago Sky Blue.
Chloride Free Dye Stimulation Solution consisted of Chloride Free Dye Solution, 10 μM forskolin, 100 μM IBMX, and 300 nM Compound III.
Human intestinal epithelial enteroid cells were obtained from the Hubrecht Institute for Developmental Biology and Stem Cell Research, Utrecht, The Netherlands and expanded in T-Flasks as previously described (Dekkers J F, Wiegerinck C L, de Jonge H R, Bronsveld I, Janssens H M, de Winter-de Groot K M, Brandsma A M, de Jong N W M, Bijvelds M J C, Scholte B J, Nieuwenhuis E E S, van den Brink S, Clevers H, van der Ent C K, Middendorp S and M Beekman J M. A functional CFTR assay using primary cystic fibrosis intestinal organoids. Nat Med. 2013 July; 19(7):939-45).
c. Enteroid Cell Harvesting and Seeding
Cells were recovered in cell recovery solution, collected by centrifugation at 650 rpm for 5 minutes at 4° C., resuspended in TrypLE and incubated for 5 minutes at 37° C. Cells were then collected by centrifugation at 650 rpm for 5 minutes at 4° C. and resuspended in IEMM containing 10 μM ROCK inhibitor (RI). The cell suspension was passed through a 40 μm cell strainer and resuspended at 1×10^6 cells/mL in IEMM containing 10 μM RI. Cells were seeded at 5000 cells/well into multi-well plates and incubated for overnight at 37° C., 95% humidity and 5% CO2 prior to assay.
e. Membrane Potential Dye, Enteroid Assay B
Enteroid cells were incubated with test compound in IEMM for 18-24 hours at 37° C., 95% humidity and 5% CO2. […] Briefly, cells were washed 5 times in Bath 1 Buffer. Bath 1 Dye Solution was added and the cells were incubated for 25 minutes at room temperature. Following dye incubation, cells were washed 3 times in Chloride Free Dye Solution. Chloride transport was initiated by addition of Chloride Free Dye Stimulation Solution and the fluorescence signal was read for 15 minutes. […] Chloride transport was then expressed as a percentage of the chloride transport following treatment with 1 μM (14S)-8-[3-(2-{Dispiro[2.0.2.1]heptan-7-yl}ethoxy)-1H-pyrazol-1-yl]-12,12-dimethyl-2λ^6-thia-3,9,11,18,23-pentaazatetracyclo[17.3.1.111,14.05,10]tetracosa-1(22),5,7,9,19(23),20-hexaene-2,2,4-trione, 3 μM (R)-1-(2,2-difluorobenzo[d][1,3]dioxol-5-yl)-N-(1-(2,3-dihydroxypropyl)-6-fluoro-2-(1-hydroxy-2-methylpropan-2-yl)-1H-indol-5-yl)cyclopropanecarboxamide and 300 nM acute N-[2,4-bis(1,1-dimethylethyl)-5-hydroxyphenyl]-1,4-dihydro-4-oxoquinoline-3-carboxamide triple combination control (% Activity).

[2] = amide bond; 14-membered ring; HATU/DIEA; DMF; 3 steps
F508del in NIH 3T3 cells = biological target: T2, F508del in NIH 3T3 cells (Homo sapiens, UniProt P13569, DEL508-508); assay: 3T3 assay: membrane potential optical assay for F508del correction; format: cell-based, mouse; details: for EC50: F508del NIH 3T3 cells, compound incubation 18-24 hours at 37° C., forskolin activation, read-out: 3T3 EC50; for Emax: NIH3T3, F508del NIH 3T3 cells, efficacy compared to lumacaftor in combination with acutely added 300 nM Ivacaftor, read-out: 3T3 Max Activity (%)
T2 construct: expressed in transfected cells
T2 sequence (P13569 with tags, fused parts or gaps DEL508-508): as above
Summary of the method: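 NIH3T3 mouse fibroblasts stably expressing F508del incubated with corrector compounds at a range of concentrations for 16-24 h at 37 °C, then loaded with voltage-sensing redistribution dye. Single addition of forskolin with Cl− gradient (chloride-free gluconate bath vs. NaCl bath, pH 7.4); membrane potential change read by fluorescence on FLIPR.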

[3] = biological target: T1, CFTR-mediated chloride transport in human intestinal epithelial enteroid cells; assay: Membrane potential dye, Enteroid Assay A; format: cell-based; details: for Ent. A Max Activity (%): % of chloride transport of triple combination control (3 μM N-[(6-amino-2-pyridyl)sulfonyl]-6-(3-fluoro-5-isobutoxy-phenyl)-2-[(4S)-2,2,4-trimethylpyrrolidin-1-yl]pyridine-3-carboxamide, 3 μM tezacaftor, 300 nM acute ivacaftor); for EC50: enteroid cells, 18-24 hours incubation, acute 10 μM forskolin and 300 nM ivacaftor, read-out: Ent. A EC50
Summary of the method: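 Enteroids seeded at 5000 cells/well were exposed to test compound in IEMM for 18-24 h at 37 °C, then loaded with methyl oxonol membrane potential dye. Chloride transport was triggered in chloride-free buffer with 10 μM forskolin, 100 μM IBMX and 300 nM Compound III, read by fluorescence for 15 min and expressed as % of a triple-combination control.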

CFTR = CFTR (Homo sapiens, UniProt P13569); assay: standard Ussing Chamber Assay for CFTR potentiator activity; format: cell-based
Chain of CFTR (P13569 whole entry, species assumed): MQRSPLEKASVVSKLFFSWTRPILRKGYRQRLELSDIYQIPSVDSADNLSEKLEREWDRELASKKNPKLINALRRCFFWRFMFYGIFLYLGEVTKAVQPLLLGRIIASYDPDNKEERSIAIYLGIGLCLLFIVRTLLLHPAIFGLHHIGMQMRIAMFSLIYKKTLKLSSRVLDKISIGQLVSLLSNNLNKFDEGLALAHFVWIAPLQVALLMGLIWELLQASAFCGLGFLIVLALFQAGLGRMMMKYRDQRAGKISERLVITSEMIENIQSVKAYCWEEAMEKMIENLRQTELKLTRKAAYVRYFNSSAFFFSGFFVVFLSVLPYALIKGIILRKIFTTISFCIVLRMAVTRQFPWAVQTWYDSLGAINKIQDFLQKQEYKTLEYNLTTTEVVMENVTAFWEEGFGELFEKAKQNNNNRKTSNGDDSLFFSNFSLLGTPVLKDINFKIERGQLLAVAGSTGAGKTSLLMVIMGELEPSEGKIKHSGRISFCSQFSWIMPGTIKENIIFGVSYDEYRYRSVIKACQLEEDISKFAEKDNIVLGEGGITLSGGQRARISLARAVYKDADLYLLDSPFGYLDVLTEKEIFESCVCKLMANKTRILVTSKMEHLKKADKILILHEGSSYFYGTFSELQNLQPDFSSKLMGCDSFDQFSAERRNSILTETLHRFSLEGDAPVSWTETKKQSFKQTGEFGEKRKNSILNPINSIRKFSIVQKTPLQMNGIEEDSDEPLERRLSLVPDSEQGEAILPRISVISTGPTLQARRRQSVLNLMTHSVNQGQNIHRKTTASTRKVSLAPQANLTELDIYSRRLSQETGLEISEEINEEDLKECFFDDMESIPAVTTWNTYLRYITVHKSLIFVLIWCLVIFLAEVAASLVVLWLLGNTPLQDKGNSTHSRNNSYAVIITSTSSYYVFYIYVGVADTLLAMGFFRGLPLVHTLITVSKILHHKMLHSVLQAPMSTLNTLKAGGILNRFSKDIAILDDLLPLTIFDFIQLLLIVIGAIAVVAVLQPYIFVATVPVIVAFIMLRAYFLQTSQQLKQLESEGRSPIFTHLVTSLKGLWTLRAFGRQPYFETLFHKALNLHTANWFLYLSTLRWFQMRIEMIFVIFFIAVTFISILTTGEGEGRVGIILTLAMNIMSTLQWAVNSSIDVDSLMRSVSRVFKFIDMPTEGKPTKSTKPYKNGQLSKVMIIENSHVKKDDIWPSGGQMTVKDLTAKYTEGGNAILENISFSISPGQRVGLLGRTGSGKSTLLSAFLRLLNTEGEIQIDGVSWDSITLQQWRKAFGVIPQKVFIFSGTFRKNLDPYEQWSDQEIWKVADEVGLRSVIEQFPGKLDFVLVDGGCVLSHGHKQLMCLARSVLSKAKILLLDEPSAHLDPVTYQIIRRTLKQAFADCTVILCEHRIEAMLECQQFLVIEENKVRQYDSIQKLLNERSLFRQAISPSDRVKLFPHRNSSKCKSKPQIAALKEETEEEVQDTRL
Protocol: tert-Butyl N-[(6R,12R)-6-benzyloxy-12-methyl-6,15-bis(trifluoromethyl)-13,19-dioxa-3,4,18-triazatricyclo[12.3.1.12,5]nonadeca-1(18),2,4,14,16-pentaen-17-yl]-N-tert-butoxycarbonyl-carbamate (8.6 g, 11.77 mmol) was dissolved in ethanol (172 mL) then the flask was cycled 3 times between vacuum/nitrogen. Treated the mixture with 10% Pd/C (50% water wet, 1.8 g of 5% w/w, 0.8457 mmol) then cycled 3 times between vacuum/nitrogen and 3 times between vacuum/hydrogen and then stirred vigorously under hydrogen (balloon) at room temperature for 18 hours. The mixture was cycled 3 times between vacuum/nitrogen, filtered over Celite, washing with ethanol, and then the filtrate was evaporated to give 7.3 g of tert-butyl N-tert-butoxycarbonyl-N-[(6R,12R)-6-hydroxy-12-methyl-6,15-bis(trifluoromethyl)-13,19-dioxa-3,4,18-triazatricyclo[12.3.1.12,5]nonadeca-1(18),2,4,14,16-pentaen-17-yl]carbamate an off-white solid. 1H NMR and MS confirmed the expected product. CFTR modulatory activity was confirmed using a standard Ussing Chamber Assay for CFTR potentiator activity.

| SMILES | EC50 (F508del in NIH 3T3 cells) [nM] | Emax (F508del in NIH 3T3 cells) [%] | Ent. A Max Activity (%) [3] | EC50 [3] [nM] | further results |
| --- | --- | --- | --- | --- | --- |
| Cc1cccc(C)c1-c1cc2nc(n1)NS(=O)(=O)c1cccc(c1)OC(Cc1ccccc1)CCO2 (stereo not shown) [Compound 120] |  |  |  |  | Ent. B Max Activity (%) [1]: ++ (++ is 30-60%); EC50 [1]: < 1000 nM |
| Cc1cccc(C)c1-c1cc2nc(n1)NS(=O)(=O)c1cccc(c1)NC(=O)c1cc(ccc1Br)O2 |  |  |  |  | ring closure, isolated yield [2]: 20% |
| Cc1cccc(C)c1-c1cc2nc(n1)NS(=O)(=O)c1cccc(c1)NC(=O)c1cc(ccc1Cl)O2 [Compound 55, 18-chloro-5-(2,6-dimethylphenyl)-9,9-dioxo-2-oxa-9λ^6-thia-6,8,15,23-tetraazatetracyclo[15.3.1.13,7.110,14]tricosa-1(21),3,5,7(23),10(22),11,13,17,19-nonaen-16-one] | < 1000 | > 60 | +++ (+++ is >60%) | 1000 to 3000 | ring closure, yield after HPLC (from Cc1cccc(C)c1-c1cc(Oc2ccc(Cl)c(C(=O)O)c2)nc(NS(=O)(=O)c2cccc(N)c2)n1, amide bond, 14-membered ring, HATU/DIEA, 1.0 h): 38% |
| Cc1cccc(C)c1-c1cc2cc(n1)NS(=O)(=O)c1cccc(c1)NC(=O)c1cccc(c1)O2 [Compound 77, 5-(2,6-Dimethylphenyl)-9,9-dioxo-2-oxa-9λ^6-thia-6,8,15-triazatetracyclo[15.3.1.13,7.110,14]tricosa-1(20),3,5,7(23),10(22),11,13,17(21),18-nonaen-16-one] | < 1000 | > 60 | ++ (++ is 30-60%) | 3000 to 30000 | ring closure, yield after HPLC (amide bond, 14-membered ring, HATU/DIEA, DMF, 130.0 mM): 60% |
| Cc1ccc2cc1Oc1cc(-c3c(C)cccc3C)nc(n1)NS(=O)(=O)c1cccc(c1)NC(=O)CC2 [Compound 66, 5-(2,6-Dimethylphenyl)-22-methyl-9,9-dioxo-2-oxa-9λ^6-thia-6,8,15,25-tetraazatetracyclo[17.3.1.13,7.110,14]pentacosa-1(22),3,5,7(25),10(24),11,13,19(23),20-nonaen-16-one] | < 1000 | > 60 | +++ (+++ is >60%) | 1000 to 3000 | ring closure, yield after HPLC (amide bond, 16-membered ring, none (thermal, isolated OPfp ester), NMP, 67.6 mM, 100.0 °C, 4 steps): 6% |
| Cc1cccc(C)c1-c1cc2nc(n1)NS(=O)(=O)c1cncc(c1)NC(=O)C1CC(CN(C(=O)OC(C)(C)C)C1)O2 (racemic) [Compound 14, tert-Butyl 19-(2,6-dimethylphenyl)-8,15,15-trioxo-2-oxa-15λ^6-thia-5,9,12,16,18,21-hexaazatetracyclo[15.3.1.13,7.110,14]tricosa-1(21),10,12,14(22),17,19-hexaene-5-carboxylate] |  |  | + (+ is <30%) | < 1000 | ring closure, yield after HPLC (from Cc1cccc(C)c1-c1cc(OC2CC(C(=O)Oc3c(F)c(F)c(F)c(F)c3F)CN(C(=O)OC(C)(C)C)C2)nc(NS(=O)(=O)c2cncc(N)c2)n1, amide bond, 14-membered ring, none (thermal, OPfp ester), NMP, 12.1 mM, 140.0 °C, 5.0 h, 5 steps): 1% |
| C[C@@H]1CCCCC[C@](O)(C(F)(F)F)C2=NN=C(O2)c2nc(c(C(F)(F)F)cc2N)O1 [(6R,12R)-17-amino-12-methyl-6,15-bis(trifluoromethyl)-13,19-dioxa-3,4,18-triazatricyclo[12.3.1.12,5]nonadeca-1(18),2,4,14,16-pentaen-6-ol] |  |  |  |  | CFTR modulatory activity (CFTR): confirmed |
| Cc1cccc(C)c1-c1cc2nc(n1)NS(=O)(=O)c1cccc(c1)COC1CC(CN(C(=O)OC(C)(C)C)C1)O2 (stereo not shown) [Compound 119, tert-Butyl 19-(2,6-dimethylphenyl)-15,15-dioxo-2,8-dioxa-15λ^6-thia-5,16,18,21-tetraazatetracyclo[15.3.1.13,7.110,14]tricosa-1(21),10,12,14(22),17,19-hexaene-5-carboxylate] |  |  | + (+ is <30%) |  | ring closure, yield after HPLC (from tert-butyl 3,5-dihydroxypiperidine-1-carboxylate + 3-(bromomethyl)-N-[4-chloro-6-(2,6-dimethylphenyl)pyrimidin-2-yl]benzenesulfonamide?, snar bond, 14-membered ring, NaH, DMF, 50.0 mM, 2 steps): 15% |
| Cc1cccc(C)c1-c1cc2nc(n1)NS(=O)(=O)c1cccc(c1)NC(=O)c1cccc(c1C)O2 |  |  |  |  | ring closure, isolated yield [2]: 33% |
| Cc1cccc(C)c1-c1cc2nc(n1)NS(=O)(=O)c1cccc(c1)OCCCO2 [Compound 122] |  |  |  |  | Ent. B Max Activity (%) [1]: + (+ is <30%); EC50 [1]: 3000 to 30000 nM |
| Cc1cccc(C)c1-c1cc2nc(n1)NS(=O)(=O)c1cccc(c1)OC(c1ccccc1)CCO2 (stereo not shown) [Compound 121] |  |  |  |  | Ent. B Max Activity (%) [1]: +++ (+++ is >60%); EC50 [1]: < 1000 nM |
| Cc1cccc(C)c1-c1cc2nc(n1)NS(=O)(=O)c1cccc(c1)NC(=O)CCCc1cccc(c1)O2 [Compound 65, 5-(2,6-Dimethylphenyl)-9,9-dioxo-2-oxa-9λ^6-thia-6,8,15,26-tetraazatetracyclo[18.3.1.13,7.110,14]hexacosa-1(23),3,5,7(26),10(25),11,13,20(24),21-nonaen-16-one] | < 1000 | > 60 | +++ (+++ is >60%) | 1000 to 3000 | ring closure, yield after HPLC (from Cc1cccc(C)c1-c1cc(Oc2cccc(CCCC(=O)O)c2)nc(NS(=O)(=O)c2cccc(N)c2)n1, amide bond, 17-membered ring, HATU/DIEA, DMF, 56.8 mM, 0.033 h): 28% |
